Earlier results as cited in US5395974A, “Lewis acid catalyzed ammonolysis of nylon” (E. I. Du Pont de Nemours and Company, priority 1994, dated 1995).

Conditions: values in square brackets in the text

Which “pKa of the conjugate acid of the anion” value does the source give for `O=C(O)C(F)(F)F` [CF3 CO2 --] here?
Its value is 0.2.
